Laboratory results: US20060198900A1, “Bioactive Agent Compositions for Repair of Cell Injuries” (Nutritional Bioscience Limited, priority 2004, published 2006)
“Also recorded” adds a separate entry of the source.

Key:
[1] = tested on: recurrent herpes simplex infection (cold sores); conditions: oral 600-1000 mg per day in two doses; increasing from 46 days; cited from earlier work
[2] = tested on: human colonic cancer cell line HT-29; assay: Cell restitution (migration) assay in wounded HT-29 monolayers; assay type: cell-based; conditions: 10 ug/ml, 8 hours after wounding
Experimental: Accordingly, the human colonic cancer cell line HT-29 was grown to confluence in six well plates in a solution of DMEM-containing glutamine and 10% fetal calf serum. The monolayers of the cells were then wounded by scraping a disposable pipette tip across the dishes, washed with fresh serum-free medium, and then cultured in a serum-free medium in the presence of 1 mg/ml, 2 mg/ml, and 5 mg/ml colostrum solutions. The rate of movement of the anterior edges of the wounded monolayer cells was then determined by taking serial photomicrographs at various times after wounding (i.e., 0, 4, 8, 12, and 24) hours, using an inverted Nikon TS100 microscope and a Nikon Coolpix 800 digital camera with 100-fold magnification. Identical regions were examined at each time point by premarking the base of the plates to facilitate alignment. […] Each wound was examined in at least three different regions, and expressed as mean and SEM of three separate experiments.
The next study analyzed the potential added benefit of using colostrum rather than milk based product. […] The distance migrated by the leading edge of the cells 8 hours after wounding was then assessed. […]
The next study analysed the potential added benefit of using licorice as a stimulant of restitution. […] The distance migrated by the leading edge of the cells 8 hours after wounding was then assessed. […]

Caco2-BBe cells = conditions: relatively small amount, 1 mg protein/ml; cited from earlier work
[3] = tested on: indomethacin-induced rat gastric damaging model; assay: Indomethacin-induced rat gastric damaging model; assay type: in vivo; conditions: 1% via gavage before indomethacin

For `Nc1nc2c(ncn2COCCO)c(=O)[nH]1` [acyclovir], the “mean time to recurrence of cold sores” value [1] is given as 118 days.
In the case of “epidermal growth factor [EGF, peptide growth factor used as positive control]”, the “amount of migration of leading edge versus DMEM alone” value [2] is reported as “two-fold increase; also recorded: increased the amount of cell movement”.
In the case of `O=c1c(-c2ccc(O)cc2)coc2cc(O)cc(O)c12` [genistein], the “growth of Caco2-BBe cells” value (Caco2-BBe cells) is listed as “increase some parameters of growth”.
For `O=C([O-])O.[Na+]` [sodium bicarbonate], the “reduction of degree of gastric injury compared to saline control” value [3] was “about 75%”.
